Assay results as given in article PMC9080489, “Synthesis and biological evaluation of 2-aryl-benzimidazole derivatives of dehydroabietic acid as novel tubulin polymerization inhibitors” (RSC Advances, 2018).

Assays:
[1] = test system: human breast cancer cell line (MDA-MB-231); assay: MTT cytotoxic assay, MDA-MB-231; format: cell-based; settings: MDA-MB-231, MTT, 48 h exposure, read-out: IC50 MDA-MB-231
Experimental: The in vitro antiproliferative activity of DAA derivatives (1–5, 6a–k, 7a–k) were evaluated by MTT assay against human hepatocarcinoma cell line (SMMC-7721), human breast cancer cell line (MDA-MB-231), human cervical carcinoma cell line (HeLa), mouse colon cancer cell line (CT-26) and human normal hepatocyte cell line (QSG-7701). Nocodazole was co-assayed as the positive control and DMEM culture medium containing 0.1% DMSO was used as negative control. The results of the tested compounds expressed as IC50 values (concentration required to inhibit tumor cell proliferation by 50%) were presented in Table 1.
The human hepatocarcinoma cell line (SMMC-7721), human breast cancer cell line (MDA-MB-231), human cervical carcinoma cell line (HeLa), mouse colon cancer cell line (CT-26) and human normal hepatocyte cells (QSG-7701) used in this study were all obtained from Keygene Biotech., China. These cell lines were maintained in DMEM medium supplemented with 10% heat-inactivated fetal bovine serum in a humidified atmosphere of 5% CO2 at 37 °C.
The in vitro cytotoxic activities of the benzimidazole derivatives of dehydroabietic acid were evaluated against tested cell lines via the MTT colorimetric method. Briefly, different tumor cells were grown in DMEM medium supplemented with 10% fetal bovine serum, penicillin (100 U mL^−1), and streptomycin (50 μg mL^−1). Cells were harvested at log phase of growth and seeded in 96-well plates (100 μL per well at a density of 2 × 10^5 cells mL^−1). After 24 h incubation at 37 °C and 5% CO2 to allow cell attachment, cultures were exposed to various concentrations of the isolated compounds for 48 h. Finally, MTT solution (2.5 mg mL^−1 in PBS) was added (40 μL per well). Plates were further incubated for 4 h at 37 °C, and the formazan crystals formed were dissolved by adding 150 μL per well of DMSO. Absorption at 570 nm was measured with an ELISA plate reader. The results were expressed as IC50 values with standard deviations, which was defined as the concentration at which 50% survival of cells was discerned. Nocodazole was co-assayed as positive control.

SMMC-7721 cells [2] = assay: Cell cycle analysis (PI staining, flow cytometry); format: cell-based, human; settings: 24 h; for percentage of cells in G2/M phase: control 8.86%; for percentage of cells in S phase: control 25.21%; for percentage of cells in G0/G1 phase: control 65.93%
Experimental: Flow cytometry was used to analyze the effects of the DAA derivative on cell growth and division. SMMC-7721 cells were treated with different concentrations of compound 6j (0, 0.1, 0.2 and 0.5 μM) for 24 h. Cell cycle distribution was investigated by flow cytometric analysis after staining the DNA of the treated cells with propidium iodide (PI).
For the flow cytometric analysis of the DNA content, SMMC-7721 cells were seeded in 6-well plates (5 × 10^5 cells per well) and incubated in the absence or presence of compound 6j at indicated concentrations for 24 h. After treatment, cells were detached with 0.25% trypsin, harvested by centrifugation, washed twice with ice-cold PBS and then fixed and permeabilized with ice-cold ethanol at 4 °C overnight. Ethanol was removed by centrifugation, and the cells were washed twice and resuspended in ice-cold PBS. After this, the cells were treated with 100 μL of 100 μg mL^−1 RNAse A at 37 °C for 30 min, followed by incubation with 400 μL of 1 mg mL^−1 DNA staining solution propidium iodide (PI) in the dark at 4 °C for 30 min. The samples were then analyzed for their DNA content by flow cytometry (Becton-Dickinson FACSCalibur, New York, USA).

SMMC-7721 cells [3] = assay: Annexin V-FITC/PI dual staining assay (apoptosis); format: cell-based, human; settings: highest concentration 2.0 μM, 24 h; control 10.12%
Experimental: In order to investigate whether compound 6j could induce cell apoptosis, SMMC-7721 cells treated with different concentrations of compound 6j were subjected to Annexin V-FITC/propidium iodide (PI) dual staining followed by flow cytometry assay.
Apoptosis was discriminated with the Annexin V-FITC/PI dual staining assay. SMMC-7721 cells were seeded at 1 × 10^5 cells per well in 10% fetal calf serum (FBS)-DMEM into six-well plates and treated with or without compound 6j for 24 h. The cells were detached with 0.25% trypsin, washed twice with ice-cold PBS and then resuspended in 500 μL of 1× binding buffer (0.1 M Hepes/NaOH (pH 7.4), 1.4 M NaCl, 25 mM CaCl2). The solution was transferred into 5 mL culture tubes, and 5 μL of Annexin V-FITC (BD, Pharmingen) and 5 μL of PI were added to each tube. The cells were gently vortexed, and incubated for 30 min at 25 °C in the dark. The analysis was performed on a flow cytometry (Becton-Dickinson FACSCalibur, New York, USA).

SMMC-7721 cells [4] = assay: JC-1 mitochondrial membrane potential assay; format: cell-based, human; settings: 24 h, control 6.47%
Source text: As the most important organelle, mitochondria play key roles not only on supplying metabolic energy in the form of ATP, but also on regulating the signal transmission during the apoptosis of cancer cells.[46] Besides, the mitochondrial dysfunction can be aroused under high ROS exposure, leading to the collapse of mitochondrial membrane potential (ΔΨm), which is a characteristic phenomenon of early apoptosis.[47] In order to further investigate the apoptosis-inducing effect of target compound 6j, mitochondrial membrane potential changes were detected using the fluorescent probe JC-1. As a lipophilic cationic dye, JC-1 can easily pass through the plasma membrane into cells and accumulates in actively respiring mitochondria. In control cells, JC-1 can form aggregates in mitochondrial matrix and present high red fluorescence. However, in apoptotic cells whose mitochondrial potential has collapsed, JC-1 exists in cytosol as a monomer which emits green fluorescence. SMMC-7721 cells treated with different concentrations (0, 0.1, 0.2, 0.5, 1.0 and 2.0 μM) of compound 6j for 24 h were stained with JC-1 and then subjected to flow cytometry.
The JC-1 mitochondrial membrane potential assay kit (Keygene Biotech., China) was employed to measure mitochondrial depolarization in SMMC-7721 cells. Briefly, cells cultured in six-well plates after indicated treatments were incubated with an equal volume of JC-1 staining solution (5 μg mL^−1) at 37 °C for 20 min and rinsed twice with PBS. Mitochondrial membrane potentials were monitored by determining the relative amounts of dual emissions from mitochondrial JC-1 monomers or aggregates using flow cytometry (Becton-Dickinson FACSCalibur, New York, USA). Mitochondrial depolarization is indicated by an increase in the percentage of cells with low ΔΨm (green fluorescence, lower right quadrant) compared with cells with high ΔΨm (red fluorescence, upper right quadrant).

- melting point: 179 to 181 °C
SMILES: COC(=O)[C@]1(C)CCC[C@]2(C)c3cc(Br)c4nc(-c5ccc6[nH]ccc6c5)[nH]c4c3CCC12 (some centres unmarked) [Compound 6j, Methyl 2′-(1H-indol-5-yl)-12-bromo-13,14-imidazolyl-deisopropyl-dehydroabietate]
- IC50 [1]: 190 ± 40 nM
- percentage of cells in G2/M phase (SMMC-7721 cells [2]; 0.1 μM): 13.65%
- percentage of cells in S phase (SMMC-7721 cells [2]; 0.1 μM): 29.52%
- percentage of cells in G0/G1 phase (SMMC-7721 cells [2]; 0.1 μM): 56.83%
- percentage of cells in G2/M phase (SMMC-7721 cells [2]; 0.2 μM): 18.37%
- percentage of cells in S phase (SMMC-7721 cells [2]; 0.2 μM): 29.34%
- percentage of cells in G0/G1 phase (SMMC-7721 cells [2]; 0.2 μM): 52.28%
- percentage of cells in G2/M phase (SMMC-7721 cells [2]; 0.5 μM): 26.42%
- percentage of cells in S phase (SMMC-7721 cells [2]; 0.5 μM): 24.27%
- percentage of cells in G0/G1 phase (SMMC-7721 cells [2]; 0.5 μM): 49.30%
- percentage of early and late apoptotic cells (SMMC-7721 cells [3]): 80.08%
- percentage of cells with low ΔΨm (lower right quadrant) (SMMC-7721 cells [4]; 0.1 μM): 11.35%
- percentage of cells with low ΔΨm (lower right quadrant) (SMMC-7721 cells [4]; 0.2 μM): 15.66%
- percentage of cells with low ΔΨm (lower right quadrant) (SMMC-7721 cells [4]; 0.5 μM): 20.16%
- percentage of cells with low ΔΨm (lower right quadrant) (SMMC-7721 cells [4]; 1.0 μM): 31.30%
- percentage of cells with low ΔΨm (lower right quadrant) (SMMC-7721 cells [4]; 2.0 μM): 53.12%
